US4243408A, “Herbicidal N-triazolylmethyl-substituted alpha-haloacetanilide” (Chevron Research Company, priority 1978, dated 1981)

Legend:
Type in all cases: in vivo
[1] = tested on: Crabgrass (Digitaria sanguinalis); test: Pre-Emergent Test, herbicidal effectiveness; details: pre-emergence, 504 h, 33 micrograms per cm^2, 3 weeks, 0-to-100 scale, read-out: Herbicidal Effectiveness, % Control Pre, C
How it was run: (§1)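 Seeds planted in soil, then surface sprayed pre-emergence at 33 micrograms/cm^2 with compound in acetone/surfactant/water; pots watered and kept in greenhouse. Herbicidal effect scored visually on 0–100 scale (0 no phytotoxicity, 100 complete kill).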

[2] = tested on: Lambsquarter (Chenopodium album); test: Pre-Emergent Test, herbicidal effectiveness; details: pre-emergence, 504 h, 33 micrograms per cm^2, 3 weeks, 0-to-100 scale, read-out: Herbicidal Effectiveness, % Control Pre, L
How it was run: as §1

[3] = tested on: Mustard (Brassica arvensis); test: Pre-Emergent Test, herbicidal effectiveness; details: pre-emergence, 504 h, 33 micrograms per cm^2, 3 weeks, 0-to-100 scale
How it was run: as §1

[4] = tested on: Pigweed (Amaranthus retroflexus); test: Pre-Emergent Test, herbicidal effectiveness; details: pre-emergence, 504 h, 33 micrograms per cm^2, 3 weeks, 0-to-100 scale, read-out: Herbicidal Effectiveness, % Control Pre, P
How it was run: as §1

Watergrass (Echinochloa) [5] = test: Pre-Emergent Test, herbicidal effectiveness; details: pre-emergence, 504 h, 33 micrograms per cm^2, 3 weeks, 0-to-100 scale, read-out: Herbicidal Effectiveness, % Control Pre, W
How it was run: as §1

Wild Oats (Avena fatua) [6] = test: Pre-Emergent Test, herbicidal effectiveness; details: pre-emergence, 504 h, 33 micrograms per cm^2, 3 weeks, 0-to-100 scale, read-out: Herbicidal Effectiveness, % Control Pre, O
How it was run: as §1

[7] = tested on: Crabgrass (Digitaria sanguinalis); test: Post-Emergent Test, herbicidal effectiveness; details: post-emergence, 504 h, 33 micrograms per cm^2, 3 weeks, 0-to-100 scale, read-out: Herbicidal Effectiveness, % Control Post, C
How it was run: (§2)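 Sprayed at 5000 ppm in acetone/water with nonionic surfactant, 33 micrograms/cm^2, onto two pots of 24-day-old plants; kept in greenhouse with base watering. Phytotoxicity rated after 3 weeks on a 0-100 scale (0 no effect, 100 complete kill).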

[8] = tested on: Lambsquarter (Chenopodium album); test: Post-Emergent Test, herbicidal effectiveness; details: post-emergence, 504 h, 33 micrograms per cm^2, 3 weeks, 0-to-100 scale, read-out: Herbicidal Effectiveness, % Control Post, L
How it was run: as §2

[9] = tested on: Mustard (Brassica arvensis); test: Post-Emergent Test, herbicidal effectiveness; details: post-emergence, 504 h, 33 micrograms per cm^2, 3 weeks, 0-to-100 scale
How it was run: as §2

[10] = tested on: Pigweed (Amaranthus retroflexus); test: Post-Emergent Test, herbicidal effectiveness; details: post-emergence, 504 h, 33 micrograms per cm^2, 3 weeks, 0-to-100 scale, read-out: Herbicidal Effectiveness, % Control Post, P
How it was run: as §2

Watergrass (Echinochloa) [11] = test: Post-Emergent Test, herbicidal effectiveness; details: post-emergence, 504 h, 33 micrograms per cm^2, 3 weeks, 0-to-100 scale, read-out: Herbicidal Effectiveness, % Control Post, W
How it was run: as §2

Wild Oats (Avena fatua) [12] = test: Post-Emergent Test, herbicidal effectiveness; details: post-emergence, 504 h, 33 micrograms per cm^2, 3 weeks, 0-to-100 scale, read-out: Herbicidal Effectiveness, % Control Post, O
How it was run: as §2

Row | Compound | pest or weed control at 33 µg/cm2 [1] | pest or weed control at 33 µg/cm2 [2] | pest or weed control at 33 µg/cm2 [3] | pest or weed control at 33 µg/cm2 [4] | pest or weed control at 33 µg/cm2 (Watergrass (Echinochloa) [5]) | pest or weed control at 33 µg/cm2 (Wild Oats (Avena fatua) [6]) | pest or weed control at 5000 µg/mL, 33 µg/cm2 [7] | pest or weed control at 5000 µg/mL, 33 µg/cm2 [8] | pest or weed control at 5000 µg/mL, 33 µg/cm2 [9] | pest or weed control at 5000 µg/mL, 33 µg/cm2 [10] | pest or weed control at 5000 µg/mL, 33 µg/cm2 (Watergrass (Echinochloa) [11]) | pest or weed control at 5000 µg/mL, 33 µg/cm2 (Wild Oats (Avena fatua) [12])
1 | Cc1nnc(CN(C(=O)CCl)c2c(C)cccc2C)[nH]1 [Compound 2B, N-(5-methyl-1,2,4-triazol-3-ylmethyl)-2,6-dimethyl-alpha-chloroacetanilide] | 100% | 98% | 75% | 88% | 100% | 100% | 20% | 50% | 25% | 32% | 75% | 30%
2 | Cc1nnc(C(C)Nc2c(C)cccc2C)[nH]1 (stereo not drawn) [Compound 11A] | 0% | 0% | 0% | 0% | 0% | 0% | 0% | 0% | 0% | 0% | 0% | 0%
3 | Cc1cccc(C)c1N(Cc1nnc[nH]1)C(=O)CCl [Compound 9B] | 100% | 100% | 55% | 100% | 100% | 100% | 70% | 25% | 25% | 0% | 75% | 65%
4 | Cc1nnc(CNc2c(C)cccc2Cl)[nH]1 [Compound 22A] | 0% | 0% | 0% | 0% | 0% | 0% | 0% | 0% | 0% | 0% | 0% | 0%
5 | CSc1nnc(CNc2c(C)cccc2C)n1C [Compound 14A] | 0% | 0% | 0% | 0% | 0% | 0% | 0% | 0% | 0% | 0% | 0% | 0%
6 | CCc1cccc(C)c1N(Cc1nnc(C(C)C)[nH]1)C(=O)CCl [Compound 16B] | 100% | 100% | 95% | 95% | 100% | 100% | 70% | 35% | 40% | 40% | 75% | 70%
7 | CCc1cccc(CC)c1N(Cc1nnc(SC)n1C)C(=O)CCl [Compound 23B] | 0% | 0% | 0% | 0% | 0% | 0% | 0% | 0% | 0% | 0% | 0% | 0%
